How the values were obtained:
MGLL = target: T1, MGLL (Mus musculus, UniProt O35678); assay: In vitro competitive activity-based protein profiling, mouse brain proteome (MGLL); format: biochemical; parameters: IC50 MGLL Brain (Mouse, μM): scale not given here; details: for % Inh MGLL Brain (Mouse, μM): concentration not given (μM)
T1 construct: Brain; from tissue; host or cells: mouse brain proteome
T1 sequence (O35678 1-303): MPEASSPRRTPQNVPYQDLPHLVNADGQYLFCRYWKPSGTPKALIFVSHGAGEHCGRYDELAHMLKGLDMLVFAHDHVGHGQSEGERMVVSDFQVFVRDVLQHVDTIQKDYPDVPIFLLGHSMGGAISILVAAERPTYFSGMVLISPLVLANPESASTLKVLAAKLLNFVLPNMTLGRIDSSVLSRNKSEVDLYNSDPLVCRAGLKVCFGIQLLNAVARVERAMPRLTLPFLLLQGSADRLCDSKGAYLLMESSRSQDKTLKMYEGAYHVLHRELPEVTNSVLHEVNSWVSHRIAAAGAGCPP

ABHD6 = target: T2, ABHD6 (Mus musculus, UniProt Q8R2Y0); assay: In vitro competitive activity-based protein profiling, mouse brain proteome (ABHD6); format: biochemical; details: mouse brain proteome; concentration not given (μM)
T2 construct: Brain; from tissue; host or cells: mouse brain proteome
T2 sequence (Q8R2Y0 1-336): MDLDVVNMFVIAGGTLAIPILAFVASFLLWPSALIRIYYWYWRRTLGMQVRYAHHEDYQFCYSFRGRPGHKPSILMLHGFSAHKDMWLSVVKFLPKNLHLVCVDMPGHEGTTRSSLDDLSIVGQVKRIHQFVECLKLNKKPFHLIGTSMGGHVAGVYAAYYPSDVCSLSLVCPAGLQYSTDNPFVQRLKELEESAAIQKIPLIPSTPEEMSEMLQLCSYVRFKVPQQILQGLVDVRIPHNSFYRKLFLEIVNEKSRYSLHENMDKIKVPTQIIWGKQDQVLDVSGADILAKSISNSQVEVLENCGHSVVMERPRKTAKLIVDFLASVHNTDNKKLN
Procedure: [The source words this procedure for another target and reports this target under the same test.] In Vitro Competitive Activity-Based Protein Profiling.
Proteomes (human prefrontal cortex or cell membrane fractions) (50 μL, 1.0 mg/mL total protein concentration) were preincubated with varying concentrations of inhibitors at 37° C. After 30 min, FP-Rh or HT-01 (1.0 μL, 50 μM in DMSO) was added and the mixture was incubated for another 30 min at room temperature. Reactions were quenched with SDS loading buffer (15 μL-4×) and run on SDS-PAGE.

SMILES	% Inh MGLL Brain (Mouse, μM) (MGLL)	% Inh ABHD6 Brain (Mouse, μM) (ABHD6)	IC50 MGLL Brain (Mouse, μM) (MGLL)
CC(=O)N1CC2(CCN(c3cc(Cl)ccc3CN3CCN(C(=O)OC(C(F)(F)F)C(F)(F)F)CC3)C2)C1 [Example 176, 1,1,1,3,3,3-Hexafluoropropan-2-yl 4-(2-(2-acetyl-2,6-diazaspiro[3.4]octan-6-yl)-4-chlorobenzyl)piperazine-1-carboxylate]	### (### is ≥75%)	# (# is ≤25%)	–
O=C(OC(C(F)(F)F)C(F)(F)F)N1CCC2(CC1)CN(Cc1ccc(F)cc1)C2 [Example 93, 1,1,1,3,3,3-Hexafluoropropan-2-yl 2-(4-fluorobenzyl)-2,7-diazaspiro[3,5]nonane-7-carboxylate]	### (### is ≥75%)	### (### is ≥75%)	–
CS(=O)(=O)N1CC2(CCN(c3ccccc3CN3CCN(C(=O)OC(C(F)(F)F)C(F)(F)F)CC3)C2)C1 [Example 167, 1,1,1,3,3,3-Hexafluoropropan-2-yl 4-(2-(2-(methylsulfonyl)-2,6-diazaspiro[3,4]octan-6-yl)benzyl)piperazine-1-carboxylate]	### (### is ≥75%)	# (# is ≤25%)	–
O=C(OC(C(F)(F)F)C(F)(F)F)N1CC2(CCN(Cc3cccc(N4CCCC4)c3)CC2)C1 [Example 77, 1,1,1,3,3,3-Hexafluoropropan-2-yl 7-(3-(pyrrolidin-1-yl)benzyl)-2,7-diazaspiro[3.5]nonane-2-carboxylate]	## (## is between 25 and 75%)	### (### is ≥75%)	–
O=C(OC(C(F)(F)F)C(F)(F)F)N1CCC2(CCN(Cc3ccc(C(F)(F)F)cc3N3CCC(F)CC3)CC2)C1 [Example 192, 1,1,1,3,3,3-Hexafluoropropan-2-yl 8-(2-(4-fluoropiperidin-1-yl)-4-(trifluoromethyl)benzyl)-2,8-diazaspiro[4.5]decane-2-carboxylate]	### (### is ≥75%)	# (# is ≤25%)	–
CC(=O)N1CCC2(CC1)CCN(c1cc(C(F)(F)F)ccc1CN1CCN(C(=O)OC(C(F)(F)F)C(F)(F)F)CC1)C2 [Example 197, 1.1.1,3,3.3-Hexafluoropropan-2-yl 4-(2-(8-acetyl-2,8-diazaspiro[4.5]decan-2-yl)-4-(trifluoromethyl)benzyl)pipera zine-l-carboxylate]	### (### is ≥75%)	# (# is ≤25%)	–
O=C(OC(C(F)(F)F)C(F)(F)F)N1CC2(CCN(Cc3ccc(N4CCOCC4)cc3)CC2)C1 [Example 65, 1,1,1,3,3,3-Hexafluoropropan-2-yl 7-(4-morpholinobenzyl)-2,7-diazaspiro[3.5]nonane-2-carboxylate]	### (### is ≥75%)	### (### is ≥75%)	–
COc1ccccc1CN1CC2(CCN(C(=O)OC(C(F)(F)F)C(F)(F)F)CC2)C1 [Example 92, 1,1,1,3,3,3-Hexafluoropropan-2-yl 2-(2-methoxybenzyl)-2,7-diazaspiro[3.5]nonane-7-carboxylate]	### (### is ≥75%)	### (### is ≥75%)	–
CN1CCCC12CCN(c1cc(Cl)ccc1CN1CCN(C(=O)OC(C(F)(F)F)C(F)(F)F)CC1)CC2 [Example 214, 1,1,1,3,3,3-Hexafluoropropan-2-yl 4-(4-chloro-2-(1-methyl-1,8-diazaspiro[4.5]decan-8-yl)benzyl)piperazine-1-carboxylate]	### (### is ≥75%)	# (# is ≤25%)	–
O=C(OC(C(F)(F)F)C(F)(F)F)N1CCC2(CC1)CN(Cc1cccc(F)c1)C2 [Example 97, 1,1,1,3,3,3-Hexafluoropropan-2-yl 2-(3-fluorobenzyl)-2,7-diazaspiro[3.5]nonane-7-carboxylate]	### (### is ≥75%)	### (### is ≥75%)	–
O=C(OC(C(F)(F)F)C(F)(F)F)N1CCC2(CC1)CN(Cc1c(Cl)cccc1N1CCC(F)CC1)C2 [Example 47, 1,1,1,3,3,3-Hexafluoropropan-2-yl 2-(2-chloro-6-(4-fluoropiperidin-1-yl)benzyl)-2,7-diazaspiro[3.5]nonane-7-carboxylate]	### (### is ≥75%)	### (### is ≥75%)	–
CS(=O)(=O)N1CCC2(CCN(c3cc(CN4CCCC45CN(C(=O)OC(C(F)(F)F)C(F)(F)F)C5)cc(C(F)(F)F)c3)CC2)C1 [Example 233, 1,1,1,3,3,3-Hexafluoropropan-2-yl 5-(3-(2-(methylsulfonyl)-2,8-diazaspiro[4.5]decan-8-yl)-5-(trifluoromethyl)benzyl)-2,5-diazaspiro[3.4]octane-2-carboxylate]	### (### is ≥75%)	## (## is between 25 and 75%)	–
CS(=O)(=O)N1CCCC12CCN(c1cc(Cl)ccc1CN1CCN(C(=O)OC(C(F)(F)F)C(F)(F)F)CC1)CC2 [Example 205, 1,1,1,3,3,3-Hexafluoropropan-2-yl 4-(4-chloro-2-(l-(methylsulfonyl)-1,8-diazaspiro[4.5]decan-8-yl)benzyl)piperazine-l-carboxylate]	### (### is ≥75%)	## (## is between 25 and 75%)	–
CC(=O)N1CCC2(CC1)CCN(c1cc(Cl)ccc1CN1CCN(C(=O)OC(C(F)(F)F)C(F)(F)F)CC1)C2 [Example 29, 1,1,1,3,3,3-Hexafluoropropan-2-yl 4-(2-(8-acetyl-2,8-diazaspiro[4.5]decan-2-yl)-4-chlorobenzyl)piperazine-1-carboxylate]	### (### is ≥75%)	# (# is ≤25%)	* * *
O=C(OC(C(F)(F)F)C(F)(F)F)N1CC2(CCN(Cc3ccc(Cl)c(Cl)c3)CC2)C1 [Example 55, 1,1,1,3,3,3-Hexafluoropropan-2-yl 7-(3,4-dichlorobenzyl)-2,7-diazaspiro[3,5]nonane-2-carboxylate]	## (## is between 25 and 75%)	### (### is ≥75%)	–
CCN1CC2(CCN(c3cc(Cl)cc(CN4CCCC45CN(C(=O)OC(C(F)(F)F)C(F)(F)F)C5)c3)CC2)C1 [Example 241, 1,1,1,3,3,3-Hexafluoropropan-2-yl 5-(3-chloro-5-(2-ethyl-2,7-diazaspiro[3,5]nonan-7-yl)benzyl)-2,5-diazaspiro[3,4]octane-2-carboxylate]	# (# is ≤25%)	# (# is ≤25%)	–
O=C(OC(C(F)(F)F)C(F)(F)F)N1CC2(CCN(Cc3ccc(CN4CCOCC4)cc3)CC2)C1 [Example 18, 1,1,1,3,3,3-Hexafluoropropan-2-yl 7-(4-(morpholinomethyl)benzyl)-2,7-diazaspiro[3.5]nonane-2-carboxylate]	## (## is between 25 and 75%)	### (### is ≥75%)	–
O=C(OC(C(F)(F)F)C(F)(F)F)N1CCC2(CC1)CN(Cc1ccccc1N1CCCC1)C2 [Example 88, 1,1,1,3,3,3-Hexafluoropropan-2-yl 2-(2-(pyrrolidin-1-yl)benzyl)-2,7-diazaspiro[3.5]nonane-7-carboxylate]	### (### is ≥75%)	### (### is ≥75%)	–
CCN1CCCc2cccc(CN3CCC4(CC3)CN(C(=O)OC(C(F)(F)F)C(F)(F)F)C4)c21 [Example 31, 1,1,1,3,3,3-Hexafluoropropan-2-yl 7-((1-ethyl-1,2,3,4-tetrahydroquinolin-8-yl)methyl)-2,7-diazaspiro[3.5]nonane-2-carboxylate]	## (## is between 25 and 75%)	### (### is ≥75%)	–
CN(Cc1ccc(C(F)(F)F)cc1N1CCCC1)C1(C)CCN(C(=O)OC(C(F)(F)F)C(F)(F)F)CC1 [Example 72, 1,1,1,3,3,3-Hexafluoropropan-2-yl 4-methyl-4-(methyl(2-(pyrrolidin-1-yl)-4-(trifluoromethyl)benzyl)amino) piperidine-1-carboxylate]	### (### is ≥75%)	# (# is ≤25%)	–
CCN1CCC2(CCN(c3cc(Cl)cc(CN4CCCC45CN(C(=O)OC(C(F)(F)F)C(F)(F)F)C5)c3)CC2)C1 [Example 235, 1,1,1,3,3,3-Hexafluoropropan-2-yl 5-(3-chloro-5-(2-ethyl-2,8-diazaspiro[4.5]decan-8-yl)benzyl)-2,5-diazaspiro[3.4]octane-2-carboxylate]	–	### (### is ≥75%)	–
O=C(OC(C(F)(F)F)C(F)(F)F)N1CCC2(CC1)CN(Cc1ccc(N3CCOCC3)cc1)C2 [Example 81, 1,1,1,3,3,3-Hexafluoropropan-2-yl 2-(4-morpholinobenzyl)-2,7-diazaspiro[3.5]nonane-7-carboxylate]	### (### is ≥75%)	### (### is ≥75%)	–
